The supplement of paper PMC10307832

Experiments:
Test in all cases: relative viability (nuclei count vs DMSO), 5 days (fraction); higher = more cells survive
[1] = compound: N#CC[C@H](C1CCCC1)n1cc(-c2ncnc3[nH]ccc23)cn1 [Ruxolitinib] + CC(=O)c1c(C)c2cnc(Nc3ccc(N4CCNCC4)cn3)nc2n(C2CCCC2)c1=O [Palbociclib] (partner 0.5 µM)
Outline: (§1)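 The day after seeding in 1536-well plates, lung cancer cell lines were treated by pin tool with a single drug, or with a fixed anchor-drug dose together with five library-drug doses (not always all listed) in √10 steps. After 5 days, a combined fix-and-stain solution (final 0.05% Triton X-100, 1% formaldehyde, 1 ug/ml Hoechst) was added. Nuclei counted on 4× images gave relative viability as treated counts over vehicle counts, reported as the median of duplicate plates.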

Ruxolitinib + Crizotinib = compound: N#CC[C@H](C1CCCC1)n1cc(-c2ncnc3[nH]ccc23)cn1 [Ruxolitinib] + C[C@@H](Oc1cc(-c2cnn(C3CCNCC3)c2)cnc1N)c1c(Cl)ccc(F)c1Cl [Crizotinib] (partner 1 µM)
Outline: as §1

VE-821 + Lapatinib = compound: CS(=O)(=O)c1ccc(-c2cnc(N)c(C(=O)Nc3ccccc3)n2)cc1 [VE-821] + CS(=O)(=O)CCNCc1ccc(-c2ccc3ncnc(Nc4ccc(OCc5cccc(F)c5)c(Cl)c4)c3c2)o1 [Lapatinib] (partner 2 µM)
Outline: as §1

Ruxolitinib + Trametinib = compound: N#CC[C@H](C1CCCC1)n1cc(-c2ncnc3[nH]ccc23)cn1 [Ruxolitinib] + CC(=O)Nc1cccc(-n2c(=O)n(C3CC3)c(=O)c3c(Nc4ccc(I)cc4F)n(C)c(=O)c(C)c32)c1 [Trametinib] (partner 0.02 µM)
Outline: as §1

Cell Line | relative viability ([1]; first compound 0.08 µM) | relative viability ([1]; first compound 0.8 µM) | relative viability ([1]; first compound 2.53 µM) | relative viability ([1]; first compound 8 µM) | relative viability (Ruxolitinib + Crizotinib; first compound 0.08 µM) | relative viability (Ruxolitinib + Crizotinib; first compound 0.253 µM) | relative viability (Ruxolitinib + Crizotinib; first compound 0.8 µM) | relative viability (Ruxolitinib + Crizotinib; first compound 2.53 µM) | relative viability (Ruxolitinib + Crizotinib; first compound 8 µM) | relative viability (VE-821 + Lapatinib; first compound 0.08 µM) | relative viability (VE-821 + Lapatinib; first compound 0.253 µM) | relative viability (VE-821 + Lapatinib; first compound 0.8 µM) | relative viability (VE-821 + Lapatinib; first compound 2.53 µM) | relative viability (VE-821 + Lapatinib; first compound 8 µM) | relative viability (Ruxolitinib + Trametinib; first compound 0.08 µM) | relative viability (Ruxolitinib + Trametinib; first compound 0.8 µM) | relative viability (Ruxolitinib + Trametinib; first compound 2.53 µM) | relative viability (Ruxolitinib + Trametinib; first compound 8 µM) | relative viability ([1]; first compound 0.253 µM) | relative viability (Ruxolitinib + Trametinib; first compound 0.253 µM)
NCI-H2087 | 0.26 | 0.271 | 0.18 | 0.239 | 0.928 | 1.07 | 1 | 0.919 | 0.615 | 0.987 | 1.12 | 1.13 | 1.26 | 1.02 | 0.173 | 0.22 | 0.263 | 0.27 | – | –
NCI-H2347 | 0.425 | 0.42 | 0.43 | 0.478 | 0.665 | 0.586 | 0.764 | 0.67 | 0.651 | 1.02 | 1.05 | 0.664 | 1.03 | 1.14 | 0.296 | 0.287 | 0.247 | 0.334 | 0.395 | 0.272
NCI-H838 | 0.254 | 0.227 | 0.164 | 0.159 | 0.751 | 0.723 | 0.682 | 0.591 | 0.342 | 1.08 | 0.99 | 0.921 | 1.11 | 0.657 | 0.554 | 0.477 | 0.217 | 0.185 | 0.223 | 0.44
LXF-289 | 0.539 | 0.626 | 0.599 | 0.565 | 0.777 | 0.805 | 0.781 | 0.757 | 0.737 | 1.02 | 0.993 | 0.911 | 1.07 | 0.966 | 0.598 | 0.706 | 0.514 | 0.668 | 0.598 | 0.677
LC-2-ad | 0.544 | 0.533 | 0.473 | 0.409 | – | 0.485 | 0.49 | 0.474 | 0.465 | 1.06 | 1.01 | 1.08 | 1.07 | 0.963 | 0.879 | 0.878 | 0.663 | 0.577 | 0.511 | 0.896
NCI-H2085 | 0.453 | 0.474 | 0.39 | 0.369 | 0.844 | 0.921 | 0.857 | 0.784 | 0.711 | 0.8 | 0.758 | 0.507 | 0.815 | 0.563 | 0.639 | 0.624 | 0.483 | 0.575 | 0.468 | 0.548
